Source: paper PMC12797171, “Preclinical Evaluation of a ^177Lu-Labeled Gastrin-Releasing Peptide Receptor Antagonist and Prostate Cancer Treatment with Monotherapy and in Combination with Everolimus” (ACS Pharmacology & Translational Science, 2025)
Several values for one entry are separate records, joined by “and”; a condition that tells them apart may be missing. Equal entries are not always repeated.

Tests used:
PC-3 tumors = experiment: In vivo combination therapy with everolimus in PC-3 tumor bearing mice; set-up: species or system mouse; conditions: for Tumor volume, average: 5mg/kg (x3)
Text: Treatment began once tumors reached the same size threshold used in the monotherapy studies. Animals were divided into three groups (n = 4–5 per group) and received one of the following regimens: • 1.
Monitoring procedures matched those used in the monotherapy experiments.
The procedure is detailed in the supplementary material.
initiation of therapy in the combination treatment studies. Three groups of 5 mice per group were
Both monotherapy and combination

[1] = Morphological assessment / tolerability (H&E of kidney, pancreas, tumor)
Experimental: Selected mouse organs (kidney, pancreas and tumor) were dissected from the sacrificed animals and immediately frozen using liquid nitrogen. Frozen tissue samples were sectioned of 7 μm thickness using a cryostat maintained at – 20 °C to – 25 °C and mounted onto microscope glass slides followed by staining with hematoxylin and eosin for microscopic examination using standard protocols (details in Supporting Information).
Frozen tissue samples (kidney, pancreas and tumor) were sectioned at 7 µm thickness using a cryostat
maintained at −20°C to −25°C and mounted onto microscope glass slides. Sections were air-dried at
room temperature for 15 minutes and subsequently fixed in 4% paraformaldehyde for 10 minutes. After
rinsing in phosphate-buffered saline, slides were stained with hematoxylin for 5 minutes, rinsed in
running tap water and differentiated in 1% acid alcohol followed by bluing in ammonia water. Sections
were then counterstained with eosin for 1 minute and briefly washed in 70% ethanol to remove excess
stain. Slides were dehydrated through graded ethanol (70%, 95%, 100%) and mounted with a permanent
mounting medium. Stained sections were examined using a light microscope.

Q: With `CO[C@H]1C[C@@H]2CC[C@@H](C)[C@@](O)(O2)C(=O)C(=O)N2CCCC[C@H]2C(=O)O[C@H]([C@H](C)C[C@@H]2CC[C@@H](OCCO)[C@H](OC)C2)CC(=O)[C@H](C)/C=C(\C)[C@@H](O)[C@@H](OC)C(=O)[C@H](C)C[C@H](C)/C=C/C=C/C=C/1C` [Everolimus, everolimus] as the molecule, how does the Median survival (PC-3 tumors; 5 mg/kg/day for 3 days i.p.) read?
A: 27.5 days and ~27 days

Q: What about the “Tumor volume, average” value (PC-3 tumors; day 0) of the same molecule?
A: 100.06 mm3

Q: And the “Tumor volume, average” value (PC-3 tumors; day 2)?
A: 108.59 mm3

Q: What about the “Tumor volume, average” value (PC-3 tumors; day 4) of the same molecule?
A: 107.95 mm3

Q: And the “Tumor volume, average” value (PC-3 tumors; day 6)?
A: 97.61 mm3

Q: And the “Tumor volume, average” value (PC-3 tumors; day 8)?
A: 97.18 mm3

Q: What about the “Tumor volume, average” value (PC-3 tumors; day 10) of the same molecule?
A: 104.48 mm3

Q: What about the “Tumor volume, average” value (PC-3 tumors; day 12) of the same molecule?
A: 131.10 mm3

Q: And the “Tumor volume, average” value (PC-3 tumors; day 14)?
A: 181.07 mm3

Q: What about the “Tumor volume, average” value (PC-3 tumors; day 16) of the same molecule?
A: 193.30 mm3

Q: What about the “Tumor volume, average” value (PC-3 tumors; day 18) of the same molecule?
A: 241.75 mm3

Q: What about the “Tumor volume, average” value (PC-3 tumors; day 20) of the same molecule?
A: 376.61 mm3

Q: What about the “Tumor volume, average” value (PC-3 tumors; day 22) of the same molecule?
A: 630.33 mm3

Q: What about the “Tumor volume, average” value (PC-3 tumors; day 24) of the same molecule?
A: 524.51 mm3

Q: What about the “Tumor volume, average” value (PC-3 tumors; day 27) of the same molecule?
A: 794.32 mm3

Q: And the “Tumor volume, average” value (PC-3 tumors; day 29)?
A: 970.40 mm3

Q: What about the “effect on tumor growth” value (PC-3 tumors; everolimus alone, 5 mg/kg/day for 3 days) of the same molecule?
A: moderately delayed tumor growth but did not stop it

Q: And the “Pancreas, microscopic tissue examination” value ([1]; 5mg/kg (x3))?
A: No obvious lesions

Q: And the tolerability ([1]; three doses, physical condition and weight)?
A: no observable side effects
